Test results taken from article PMC10515483, “Structure–Reactivity Studies of 2-Sulfonylpyrimidines Allow Selective Protein Arylation” (Bioconjugate Chemistry, 2023).
In brackets after ≈: the same amount, converted by molar mass.

Tests used:
FGE-C341S = target: T1, FGE-C341S (Homo sapiens, UniProt Q8NBK3, C341S); experiment: Differential scanning fluorimetry (DSF); assay type: binding; settings: 100 μM compound; 10 µM FGE; read-out: Protein thermal stability ΔTm
T1 construct: His7 (C); made in house; host or cells: High Five insect cells (baculovirus, pAcGP67B-His7)
T1 sequence (Q8NBK3 34-374 C341S): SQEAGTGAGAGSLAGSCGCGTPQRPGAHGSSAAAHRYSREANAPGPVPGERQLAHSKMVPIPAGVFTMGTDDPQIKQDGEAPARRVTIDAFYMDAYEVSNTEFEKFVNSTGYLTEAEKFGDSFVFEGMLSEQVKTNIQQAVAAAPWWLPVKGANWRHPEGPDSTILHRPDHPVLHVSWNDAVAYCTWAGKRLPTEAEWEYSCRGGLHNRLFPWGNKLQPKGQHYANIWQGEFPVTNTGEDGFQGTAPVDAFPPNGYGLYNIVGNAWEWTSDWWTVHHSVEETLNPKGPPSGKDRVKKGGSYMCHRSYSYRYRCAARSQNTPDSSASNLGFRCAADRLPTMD
Text: (§1) We also probed the general effect of 2-SPs on protein stability by using differential scanning fluorimetry (DSF). […] Mutants of the 25 kDa DNA-binding domain of the tumor suppressor p53 are notorious for their reduced thermal stability and denaturation/aggregation propensity.[37] The 56 kDa armadillo domain (ARD) of β-catenin mediates canonical Wnt signaling and plays a central role in embryogenesis and tissue homeostasis.[38] FGE (37 kDa) is the only known activator of human sulfatases, and its stability is susceptible to modification of its cysteines.[39] […]
The cloning of human FGE-WT cDNA into baculoviral transfer vector pAcGP67B-His7 and the generation of the recombinant virus (in Sf9 cells) for expression of C-terminally His-tagged recombinant human FGE in High Five insect cells have been […]
were generated by site -directed PCR mutagenesis using pAcGP67B-FGE-WT-His7 as template and the […]
-3’. All expression plasmids were verified by sequencing of the entire coding region to exclude any undesired PCR -derived errors. The purification method was essentially performed as described in Peng et al., with one modification. The size exclusion […]
chromatography (His -trap) step foll owed directly by a second step purification using the ion -exchange column chromatography (Resource -Q). […]

β-catenin ARD = target: T2, β-catenin ARD (Homo sapiens, UniProt P35222); experiment: Differential scanning fluorimetry (DSF); assay type: binding; settings: 100 μM compound; 8 µM β-cat; read-out: Protein thermal stability ΔTm
T2 construct: vector pLipK-ARD (residues 150 – 662) was used; 6xHis-Lip (6xHis, lipoyl domain); made in house; host or cells: E. coli BL21(DE3) pRARE2
T2 sequence (P35222 150-662): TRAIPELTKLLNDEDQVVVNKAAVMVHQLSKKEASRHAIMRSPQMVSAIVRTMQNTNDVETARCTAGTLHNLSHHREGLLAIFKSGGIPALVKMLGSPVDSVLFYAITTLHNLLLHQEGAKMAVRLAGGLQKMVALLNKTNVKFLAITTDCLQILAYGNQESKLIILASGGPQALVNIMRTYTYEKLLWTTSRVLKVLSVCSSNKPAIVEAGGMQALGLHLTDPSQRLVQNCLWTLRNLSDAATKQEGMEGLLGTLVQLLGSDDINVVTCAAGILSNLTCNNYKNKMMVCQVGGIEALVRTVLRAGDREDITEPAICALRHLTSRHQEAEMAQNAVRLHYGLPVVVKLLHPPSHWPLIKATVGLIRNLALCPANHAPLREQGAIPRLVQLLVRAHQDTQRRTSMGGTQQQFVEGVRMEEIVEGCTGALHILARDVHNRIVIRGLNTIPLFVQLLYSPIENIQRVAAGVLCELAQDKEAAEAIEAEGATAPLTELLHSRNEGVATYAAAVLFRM
Text: as §1
Human β-catenin armadillo domain. β-catenin sequence was amplified by PCR (KOD DNA polymerase, Merck Millipore) from plasmid templates and cloned into bacterial expression vectors by restriction - free cloning. All plasmids were verified by sequencing. For protein pro duction, bacterial expression vector pLipK-ARD (residues 150 – 662) was used. 6xHis-Lip-tagged recombinant proteins were purified from BL21(DE3) pRARE2 E. coli bacterial strains. Bacteria were grown in LB media supplemented with appropriate antibiotic to OD600 0.6, then dropped to a lower temperature (16 – 24 °C) and induced at OD600 0.8 by addition of 0.4 mM isopropyl β -D-1-thiogalactopyranoside (IPTG). Proteins were expressed overnight and bacteria were subsequently harvested by centrifugation, cell pelle ts shock-frozen in liquid nitrogen and stored at -80°C until use. Cell pellets were re -suspended in lysis buffer (25 mM Tris -HCl pH 8, 200 mM NaCl, 20 mM imidazole, 10 μg/mL DNAse, EDTA -free protease inhibitor cocktail) and lysed with an Emulsiflex C-3 (Avestin). Lysates were cleared by ultracentrifugation (140,000x rcf, 30 minutes, 4°C) and mixed with Ni-NTA agarose. Beads were washed multiple times with lysis buffer, and 6xHisLip - tagged protein was eluted with lysis buffer supplemented with 500 mM imidazo le. The protein was further purified by SEC on a HiPrep26/60 G200 (GE Healthcare) into the final buffer of 200 mM NaCl, 25 mM Tris pH 7.4, 0.06% NaN3, 1 mM DTT, and protein purity was assessed by SDS -PAGE. Pure protein fractions were concentrated using a 1 0 kDa MWCO Vivaspin 20 concentrator (Sartorius) to 17 – 28 mg/mL, then shock frozen as droplets in liquid nitrogen and stored at -80°C until use. […]

[1] = Solubility in KPi buffer by NMR with TMSP internal standard; settings: 50 mM KPi aqueous buffer, pH 7, aqueous with cosolvent or surfactant or cyclodextrin, kinetic from dmso stock
Experimental: Stability and solubility assays
transferred to the NMR instrument for acquisition. 1H spectra (16 scans) were recorded every 10 minutes under water suppression conditions. Following acquisition, spectra were analysed using
TopSpin. Normalised integrations of the pyrimidine aromatic 1H signals in the starting material and
product were plotted as a function of time (s), using the TMSP peak as standard for integral
calibration/normalisation and monitoring of compound solubility, allowing extraction of pseudo first
order reaction rate constants (k’). Second order rate constants (k) were back calculated from the ratio
of the pseudo first counterparts and the concentration of thiol in solution.
was confirmed by formation of a single S-arylated product (characteristic 2-alkylthioether signals),
concomitant with formation of the sulfinic acid by -product (leaving group). Hydrolytic stability
assessment was performed at pH 7.0 and pH 8.2 in a similar manner, in the absence of thiol.
Chemoselectivity. Similarly, but replacing GSH by other amino acids , reference 2-
methylsulfonylpyrimidine 4q in 50 mM KPi (pH 8.2) was incubated with 10 equivalents of either Boc-
Lys-OH, L-ser-OMe, N-Ac-Tyr-OH or Proline were used.

SMILES | ΔTm at 100 µM (FGE-C341S) [°C] | ΔTm at 100 µM (β-catenin ARD) [°C] | solubility [1] [µM]
CS(=O)(=O)c1ncc(Br)cn1 [4t] | -0.4 ± 0.3 | -0.7 ± 0.1 | ≥ 2000
CS(=O)(=O)c1ncc(-c2ccccc2)cn1 [4p] | -0.2 ± 0.3 | -0.1 ± 0.1 | < 2000
CS(=O)(=O)c1nccc(C(N)=O)n1 [4j] | -0.6 | -0.3 ± 0.3 | –
CS(=O)(=O)c1ncc(Br)c(C(=O)O)n1 [4i] | -0.6 | -0.1 ± 0.1 | –
COC(=O)c1ccnc(S(C)(=O)=O)n1 [4k] | -0.4 ± 0.3 | -0.1 ± 0.1 | ≥ 2000
CS(=O)(=O)c1ncc(I)cn1 [4u] | -0.2 ± 0.3 | -0.1 ± 0.1 | ≥ 2000
Cc1cc(C)nc(S(C)(=O)=O)n1 [4a] | 0 | -0.1 ± 0.1 | ≥ 2000
COc1ccnc(S(C)(=O)=O)n1 [4b] | 0 | -0.1 ± 0.1 | ≥ 2000
CS(=O)(=O)c1nccc(N)n1 [4g] | -0.4 ± 0.3 | -0.1 ± 0.1 | ≥ 2000
CS(=O)(=O)c1nccc(C(=O)O)n1 [4d] | -0.4 ± 0.3 | -0.1 ± 0.1 | ≥ 2000
COc1cc(OC)nc(S(C)(=O)=O)n1 [4f, 4,6-dimethoxy-2-methylsulfonylpyrimidine] | 0 | -0.1 ± 0.1 | ≥ 2000
Cc1ccnc(S(C)(=O)=O)n1 [4c] | -0.6 | -0.1 ± 0.1 | ≥ 2000
CS(=O)(=O)c1nccc(-c2ccccc2)n1 [4e] | -0.2 ± 0.3 | -0.1 ± 0.1 | < 2000
CS(=O)(=O)c1ncc(C(=O)O)cn1 [4v] | -0.4 ± 0.3 | -1.3 ± 0.1 | ≥ 2000
CS(=O)(=O)c1nccc(C(F)(F)F)n1 [4l] | -0.6 | -1.7 ± 0.4 | ≥ 2000
CS(=O)(=O)c1ncc(C(F)(F)F)cn1 [4x] | -0.6 | -3.1 ± 0.6 | ≥ 2000
O=S(=O)(Oc1c(F)c(F)c(F)c(F)c1F)c1ncccn1 [5h] | -0.2 ± 0.3 | -0.1 ± 0.1 | 100 (≈ 32.6 µg/mL)

Other lines, results leading:

ΔTm at 100 µM (FGE-C341S) [°C] | ΔTm at 100 µM (β-catenin ARD) [°C] | solubility [1] [µM] | SMILES
-0.2 ± 0.3 | -0.1 ± 0.1 | ≥ 2000 | CC(C)(C)S(=O)(=O)c1ncccn1 [5a]
-0.4 ± 0.3 | -0.1 ± 0.1 | ≥ 2000 | Nc1ccc(S(=O)(=O)c2ncccn2)cc1 [5b]
-0.4 ± 0.3 | -0.1 ± 0.1 | 100 (≈ 26.5 µg/mL) | O=[N+]([O-])c1ccc(S(=O)(=O)c2ncccn2)cc1 [5f]
-0.6 | -0.1 ± 0.1 | ≥ 2000 | CS(=O)(=O)c1ncccn1 [4q, 2-methylsulfonylpyrimidine]
0 | 0.3 ± 0.3 | ≥ 2000 | O=S(=O)(NCc1ccccc1)c1ncccn1 [5g]
-0.4 ± 0.3 | -0.1 ± 0.1 | ≥ 2000 | O=S(=O)(c1ccccc1)c1ncccn1 [5d]
-0.6 | -6.9 ± 1 | ≥ 2000 | O=S(=O)(CC(F)(F)F)c1ncccn1 [5e]
-0.4 ± 0.3 | -0.1 ± 0.1 | ≥ 2000 | CCCCS(=O)(=O)c1ncccn1 [5c]
